Biological target: T1, IRAK4 (Homo sapiens, UniProt Q9NWZ3)
T1 construct: endogenous in cells; host or cells: OCI-LY10
T1 sequence (Q9NWZ3 1-460): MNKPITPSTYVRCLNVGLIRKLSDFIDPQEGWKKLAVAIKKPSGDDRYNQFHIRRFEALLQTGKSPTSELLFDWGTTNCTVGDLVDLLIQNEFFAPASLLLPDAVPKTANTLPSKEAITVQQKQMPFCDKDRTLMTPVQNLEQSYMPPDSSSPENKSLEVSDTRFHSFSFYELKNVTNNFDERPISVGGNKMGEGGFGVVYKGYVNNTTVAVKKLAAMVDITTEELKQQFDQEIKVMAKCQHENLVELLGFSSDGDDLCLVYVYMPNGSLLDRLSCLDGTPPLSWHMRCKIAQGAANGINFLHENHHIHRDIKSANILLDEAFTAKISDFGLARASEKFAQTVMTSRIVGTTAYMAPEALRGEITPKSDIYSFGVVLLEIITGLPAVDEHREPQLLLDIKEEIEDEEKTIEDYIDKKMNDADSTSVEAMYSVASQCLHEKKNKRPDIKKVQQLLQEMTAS
Assay: IRAK4 MSD Degradation in OCI-LY10
Format: cell-based
Details: OCI-LY10 cells, Meso Scale Discovery, incubated 4 to 24 hours
Summary of the method: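 IRAK4 degradation was quantified by Meso Scale electrochemiluminescence (anti-IRAK4 capture and detection antibodies) in lysates of treated OCI-LY10 cells. Compounds were dosed at 8 concentrations (1:3 dilutions, top 1 to 10 μM) for 4 to 24 h; DC50 derived by three-parameter logistic fitting.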

Compound | DC50 [nM]
Cc1cccc(C(=O)Nc2cc3sc([C@H]4CC[C@H](CN5CCO[C@H](CCCNc6cccc7c6C(=O)N(C6CCC(=O)NC6=O)C7=O)C5)CC4)nc3cc2C(C)(C)O)n1 (stereo partly shown) [I-477] | 100 to 200
CC(C)(O)c1cc2nc([C@H]3CC[C@H](CN4CC5(CC(CCNc6cccc7c6C(=O)N(C6CCC(=O)NC6=O)C7=O)C5)C4)CC3)sc2cc1NC(=O)c1cncc(F)c1 (stereo partly shown) [I-478] | 10 to 50
COc1cc2nc([C@H]3CC[C@H](CN(C)CCCCNc4cccc5c4C(=O)N(C4CCC(=O)NC4=O)C5=O)CC3)sc2cc1NC(=O)c1cncc(F)c1 (stereo partly shown) [I-479] | > 200
COc1cc2nc([C@H]3CC[C@H](CN(C)CCCCNc4cccc5c4C(=O)N(C4CCC(=O)NC4=O)C5=O)CC3)sc2cc1NC(=O)c1cncc(Cl)c1 (stereo partly shown) [I-480] | > 200
COc1cc2nc([C@H]3CC[C@H](CN(C)CCNc4cccc5c4C(=O)N(C4CCC(=O)NC4=O)C5=O)CC3)sc2cc1NC(=O)c1cncc(F)c1 (stereo partly shown) [I-481] | > 200
COc1cc2nc([C@H]3CC[C@H](CN(C)CCCNc4cccc5c4C(=O)N(C4CCC(=O)NC4=O)C5=O)CC3)sc2cc1NC(=O)c1cncc(F)c1 (stereo partly shown) [I-482] | > 200
COc1cc2nc([C@H]3CC[C@H](CN(C)CCCNc4cccc5c4C(=O)N(C4CCC(=O)NC4=O)C5=O)CC3)sc2cc1NC(=O)c1cncc(Cl)c1 (stereo partly shown) [I-483] | > 200
COc1cc2nc([C@H]3CC[C@H](CN(C)CCNc4cccc5c4C(=O)N(C4CCC(=O)NC4=O)C5=O)CC3)sc2cc1NC(=O)c1cncc(Cl)c1 (stereo partly shown) [I-484] | > 200
O=C1CCC(N2C(=O)c3cccc(NCCC4CC5(C4)CN(C[C@H]4CC[C@H](c6nc7cc(C(=O)O)c(NC(=O)c8cccc(C(F)(F)F)n8)cc7s6)CC4)C5)c3C2=O)C(=O)N1 (stereo partly shown) [I-485] | 10 to 50
CC(C)(O)c1cc2nc([C@H]3CC[C@H](C(=O)N4CCC5(CC4)CC(CCNc4cccc6c4C(=O)N(C4CCC(=O)NC4=O)C6=O)C5)CC3)sc2cc1NC(=O)c1cccc(C(F)(F)F)n1 (stereo partly shown) [I-486] | 100 to 200
CN(CCNc1cccc2c1C(=O)N(C1CCC(=O)NC1=O)C2=O)C(=O)[C@H]1CC[C@H](c2nc3cc(C(C)(C)O)c(NC(=O)c4cccc(C(F)(F)F)n4)cc3s2)CC1 (stereo partly shown) [I-488] | 100 to 200
CN(CCCNc1cccc2c1C(=O)N(C1CCC(=O)NC1=O)C2=O)C(=O)[C@H]1CC[C@H](c2nc3cc(C(C)(C)O)c(NC(=O)c4cccc(C(F)(F)F)n4)cc3s2)CC1 (stereo partly shown) [I-489] | > 200
CN(CCCNc1cccc2c1C(=O)N(C1CCC(=O)NC1=O)C2=O)C[C@H]1CC[C@H](c2nc3cc(C(C)(C)O)c(NC(=O)c4cccc(C(F)(F)F)n4)cc3s2)CC1 (stereo partly shown) [I-490] | > 200
CC(C)(O)c1cc2nc([C@H]3CC[C@H](C(=O)N4CCC(CCNc5cccc6c5C(=O)N(C5CCC(=O)NC5=O)C6=O)CC4)CC3)sc2cc1NC(=O)c1cccc(C(F)(F)F)n1 (stereo partly shown) [I-491] | 50 to 100
CN(CCNc1cccc2c1C(=O)N(C1CCC(=O)NC1=O)C2=O)C[C@H]1CC[C@H](c2nc3cc(C(C)(C)O)c(NC(=O)c4cccc(C(F)(F)F)n4)cc3s2)CC1 (stereo partly shown) [I-492] | 10 to 50
CC(C)(O)c1cc2nc([C@H]3CC[C@H](C(=O)N4CCN(CCCNc5cccc6c5C(=O)N(C5CCC(=O)NC5=O)C6=O)CC4)CC3)sc2cc1NC(=O)c1cccc(C(F)(F)F)n1 (stereo partly shown) [I-493] | < 10

Reference: US12150995B2, “IRAK degraders and uses thereof” (Kymera Therapeutics, Inc., priority 2020, dated 2024)
